# In ChEMBL document CHEMBL1154002, “GPR109a agonists. Part 1: 5-Alkyl and 5-aryl-pyrazole-tetrazoles as agonists of the human orphan G-protein coupled receptor GPR109a” (Bioorg Med Chem Lett, 2009):
# Columns and labels:
# [1] = Plasma half life in C57BL/6 mouse at 1 mg/kg, iv and 2 mg/kg, po; format: ADME, organism-based
# [2] = Bioavailability in C57BL/6 mouse at 1 mg/kg, iv and 2 mg/kg, po; format: ADME, organism-based; details: in vivo
# [3] = Volume of distribution at steady state in C57BL/6 mouse at 1 mg/kg, iv and 2 mg/kg, po; format: ADME, organism-based; details: in vivo, read-out: Vdss
# [4] = Plasma clearance in C57BL/6 mouse at 1 mg/kg, iv and 2 mg/kg, po; format: ADME, organism-based
# Mus musculus [5] = test: Reduction in plasma free fatty acid level in C57B1/6 mouse at 10 mg/kg after 15 mins; format: functional; design: scale not given: the % may be the effect or the level left
# Mus musculus [6] = test: Toxicity in C57B1/6 mouse assessed as cutaneous flushing at 30 mg/kg after 15 mins by laser doppler method; format: organism-based; design: dose 30 mg/kg; details: in vivo
smiles,measurement,setting,value
CCCC1Cc2[nH]nc(-c3nnn[nH]3)c2C1 (stereo unspecified),half-life,[1],2.9 h
same,bioavailability,[2],51%
same,Vd,[3],1.55 L/kg
same,clearance,[4],30 mL/min/kg
CCCCC1Cc2[nH]nc(-c3nnn[nH]3)c2C1 (stereo in doubt; 8d),half-life,[1],1.5 h
same,bioavailability,[2],34%
same,Vd,[3],0.7 L/kg
same,clearance,[4],21 mL/min/kg
Fc1cc(F)c(F)c(C2Cc3[nH]nc(-c4nnn[nH]4)c3C2)c1 (stereo in doubt; 9o),Activity,Mus musculus [5],24%
same,half-life,[1],2.4 h
same,bioavailability,[2],10%
same,Vd,[3],1.1 L/kg
same,Activity,Mus musculus [6],Non-toxic
same,clearance,[4],27 mL/min/kg
Fc1cccc(C2Cc3[nH]nc(-c4nnn[nH]4)c3C2)c1 (stereo unspecified),half-life,[1],1.8 h
same,bioavailability,[2],57%
same,Vd,[3],1.79 L/kg
same,clearance,[4],47 mL/min/kg
O=C(O)c1cccnc1 [NIACIN],bioavailability,[2],100%
same,Vd,[3],1 L/kg
same,clearance,[4],145 mL/min/kg
